PubChem BioAssay AID1963846 (Molecular Pharmacology Branch, DTP, NCI, 2024)
pIC50: −log10 of the molar value.

Tested on: 454973-116-R2-J3-PDC complex spheroid viability
Assay: Anticancer human tumor 454973-116-R2-J3-PDC patient-derived pancreatic carcinoma cell line growth inhibition [POLQ]
Conditions: for pIC50: curve of first compound; for viability, T/C: stronger effect = lower value; active = viability on the fitted dose curve at most 10% of control; inactive = the rest
Procedure: Multicellular complex tumor spheroid response to Polymerase (POL) inhibitors (novobiocin, ART-558, RP6685) in combination with a variety of drugs and investigational agents in selected tumor cell lines
The POL inhibitors (novobiocin, ART-558, and RP6685) were evaluated both individually and in combination with standard of care and investigational anticancer small molecules within a complex spheroid model of solid tumors. . Complex spheroids include a stromal component modeled by human endothelial cells (HUVEC) and fibroblasts modeled by human mesenchymal stem cells (MSCs). The concentration ranges selected for each drug and investigational agent were based upon clinically achievable concentrations if the clinical Cmax of the agent was known.
Compounds. The drugs and investigational agents: novobiocin (NSC847541), ART-558 (NSC835418), RP-6685 (NSC848927), peposertib (NSC802822), ceralasertib (NSC780249), elimusertib (NSC800525), camonsertib (NSC841442), AZD-1390 (NSC803789), olaparib (NSC753686), talazoparib (NSC767125), rucaparib (NSC756644), sotorasib (NSC818433), MRTX-1133 (NSC836407), SN-38 (NSC673596), topotecan (NSC609699), epotoside (NSC141540), doxorubicin (NSC123127), gemcitabine (NSC613327), 5-fluorouracil (NSC19893), paclitaxel (NSC125973), vemurafenib (NSC761431), MSA-2 (NSC828583), SN-011 (NSC837082), adavosertib (NSC754352), prexasertib (NSC758257), carboplatin (NSC241240) and oxaliplatin (NSC266046), were obtained from the National Cancer Institute (NCI) Developmental Therapeutics Program Chemical Repository (21). The FDA-approved anticancer drug set is available from the Developmental Therapeutics Program at https://dtp.cancer.gov/organization/dscb/obtaining/. […] The stock solutions were prepared in dimethyl sulfoxide (DMSO, Sigma-Aldrich, St. Louis, MO, cat. D2650), except for the platinum compounds which were prepared in saline (Quality Biological, Gaithersburg, MD, cat. 114-055-101), at 800-fold the tested concentration and stored at -70 degrees C prior to their use. All drugs and investigational agents were tested over a range starting from a high concentration at or near the clinical Cmax and decreasing in half-log increments. If the clinical Cmax for an agent had not been determined, the highest concentration tested was 10 microM, except for SN-38, which was tested at a high concentration of 1 microM.
Cell Culture. All cells were maintained in an incubator at 37 degrees C and 5% CO2 with 95% humidity. The PDC lines were cultured according to standard operating procedures established by the NCI PDMR (https://pdmr.cancer.gov). Table 3 of the manuscript, lists the cell lines along with the number of the three cell types plated to form the mct-spheroids and media for tumor cell growth. After thawing, all PDC lines, except 997537-175-T-J1-PDC and 415267-285-R-J2-PDC, were cultured in Matrigel-coated flasks prepared with a working solution of 1X Ham's F-12 nutrient mix, without supplementation (Thermo Fisher Scientific, cat. 11765054), 100 U/mL penicillin-streptomycin (Thermo Fisher Scientific, cat. 15140122), and 2.5% Matrigel (Corning Inc., Corning, NY, cat. 354248) for the first three passages. The two PDC lines 997537-175-T-J1-PDC and 415267-285-R-J2-PDC were cultured on uncoated flasks. The 857933-349-R-J2-PDC line was cultured in 6C/Colon 1B media containing advanced DMEM/F-12 (Thermo Fisher Scientific, cat. 12634028), 10 mM HEPES (Thermo Fisher Scientific, cat. 15630080), 1X GlutaMAX supplement (Thermo Fisher Scientific, cat. 35050061), 0.1 mg/mL primocin (InvivoGen, San Diego, CA, cat. ant-pm-2), 10% defined fetal bovine serum, heat inactivated (HyClone Laboratories Inc., Logan, UT, cat. SH30070.03HI), 50% L-WRN conditioned media (ATCC, cat. CRL-3276), 1.25 mM N-Acetyl-L-cysteine (Sigma-Aldrich, cat. A9165), 10 mM nicotinamide (Sigma-Aldrich, cat. N0636), 1X B-27 supplement (Thermo Fisher Scientific, cat. 17504044), 1X N-2 supplement (Thermo Fisher Scientific, cat. […]

[1] = second compound 0.0316 µM, first compound 0.0316 µM
[2] = second compound 0.0316 µM, first compound 0.1 µM
[3] = second compound 0.0316 µM, first compound 0.316 µM
[4] = second compound 0.0316 µM, first compound 1 µM
[5] = second compound 0.0316 µM, first compound 3.16 µM
[6] = second compound 0.0316 µM, first compound 10 µM
[7] = second compound 0.1 µM, first compound 0.0316 µM
[8] = second compound 0.1 µM, first compound 0.1 µM
[9] = second compound 0.1 µM, first compound 0.316 µM
[10] = second compound 0.1 µM, first compound 1 µM
[11] = second compound 0.1 µM, first compound 3.16 µM
[12] = second compound 0.1 µM, first compound 10 µM
[13] = second compound 0.316 µM, first compound 0.0316 µM
[14] = second compound 0.316 µM, first compound 0.1 µM
[15] = second compound 0.316 µM, first compound 0.316 µM
[16] = second compound 0.316 µM, first compound 1 µM
[17] = second compound 0.316 µM, first compound 3.16 µM
[18] = second compound 0.316 µM, first compound 10 µM
[19] = second compound 1 µM, first compound 0.0316 µM
[20] = second compound 1 µM, first compound 0.1 µM
[21] = second compound 1 µM, first compound 0.316 µM
[22] = second compound 1 µM, first compound 1 µM
[23] = second compound 1 µM, first compound 3.16 µM
[24] = second compound 1 µM, first compound 10 µM
[25] = second compound 3.16 µM, first compound 0.0316 µM
[26] = second compound 3.16 µM, first compound 0.1 µM
[27] = second compound 3.16 µM, first compound 0.316 µM
[28] = second compound 3.16 µM, first compound 1 µM
[29] = second compound 3.16 µM, first compound 3.16 µM
[30] = second compound 3.16 µM, first compound 10 µM
[31] = second compound 10 µM, first compound 0.0316 µM
[32] = second compound 10 µM, first compound 0.1 µM
[33] = second compound 10 µM, first compound 0.316 µM
[34] = second compound 10 µM, first compound 1 µM
[35] = second compound 10 µM, first compound 3.16 µM
[36] = second compound 10 µM, first compound 10 µM
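Note: spheroids exposed to drugs for seven days before measurement.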
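Throughout, for viability, T/C: percent viability relative to DMSO vehicle control wells taken as 100%.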

COc1cc(C2c3cc4c(cc3C(OC3OC5COC(C)OC5C(O)C3O)C3COC(=O)C23)OCO4)cc(OC)c1O (centres undefined) + COC1C(OC(N)=O)C(O)C(Oc2ccc3c(O)c(NC(=O)c4ccc(O)c(CC=C(C)C)c4)c(=O)oc3c2C)OC1(C)C
5.80: pIC50 (second compound 0.0316 µM) | pIC50 (second compound 0.1 µM) | pIC50 (second compound 1 µM)
5.74: pIC50 (second compound 0.316 µM)
active: viability, T/C [6] 9.55% | viability, T/C [18] 9.08% | viability, T/C [24] 10.6% | viability, T/C [30] 9.62% | viability, T/C [36] 8.32%
inactive: viability, T/C [1] 97.7% | viability, T/C [2] 108% | viability, T/C [3] 92.7% | viability, T/C [4] 66.8% | viability, T/C [5] 25.3% | viability, T/C [7] 100% | viability, T/C [8] 111% | viability, T/C [9] 93% | viability, T/C [10] 67.8% | viability, T/C [11] 23.5% | viability, T/C [12] 11.8% | viability, T/C [13] 106% | viability, T/C [14] 107% | viability, T/C [15] 93.8% | viability, T/C [16] 81.2% | viability, T/C [17] 20.7% | viability, T/C [19] 116% | viability, T/C [20] 97.9% | viability, T/C [21] 95.6% | viability, T/C [22] 70.4% | viability, T/C [23] 21.9% | viability, T/C [25] 118% | viability, T/C [26] 101% | viability, T/C [27] 96.6% | viability, T/C [28] 63.6% | viability, T/C [29] 24.7% | viability, T/C [31] 122% | viability, T/C [32] 94.7% | viability, T/C [33] 90.6% | viability, T/C [34] 61.4% | viability, T/C [35] 21.4%
5.83: pIC50 (second compound 3.16 µM)
5.88: pIC50 (second compound 10 µM)

COc1cccc2c1C(=O)c1c(O)c3c(c(O)c1C2=O)CC(O)(C(=O)CO)CC3OC1CC(N)C(O)C(C)O1 (centres undefined) + COC1C(OC(N)=O)C(O)C(Oc2ccc3c(O)c(NC(=O)c4ccc(O)c(CC=C(C)C)c4)c(=O)oc3c2C)OC1(C)C
inactive: viability, T/C [1] 71% | viability, T/C [2] 23.6% | viability, T/C [3] 21.3% | viability, T/C [7] 69.5% | viability, T/C [8] 27.6% | viability, T/C [9] 22.3% | viability, T/C [13] 74.3% | viability, T/C [14] 29.4% | viability, T/C [15] 25.5% | viability, T/C [19] 78.3% | viability, T/C [20] 26% | viability, T/C [21] 23.6% | viability, T/C [25] 76.4% | viability, T/C [26] 30.7% | viability, T/C [27] 22.9% | viability, T/C [31] 76% | viability, T/C [32] 24.7% | viability, T/C [33] 24.8%
7.21: pIC50 (second compound 10 µM)
7.24: pIC50 (second compound 0.1 µM)
7.19: pIC50 (second compound 0.316 µM)
active: viability, T/C [4] 8.86% | viability, T/C [5] 0.64% | viability, T/C [6] 0.19% | viability, T/C [10] 8.87% | viability, T/C [11] 0.52% | viability, T/C [12] 0.98% | viability, T/C [16] 8.79% | viability, T/C [17] 0.27% | viability, T/C [18] 0.29% | viability, T/C [22] 11.8% | viability, T/C [23] 3.28% | viability, T/C [24] 2.08% | viability, T/C [28] 9.68% | viability, T/C [29] 0.46% | viability, T/C [30] 0.39% | viability, T/C [34] 10% | viability, T/C [35] 1.62% | viability, T/C [36] 0.41%
7.20: pIC50 (second compound 1 µM)
7.25: pIC50 (second compound 0.0316 µM)
7.18: pIC50 (second compound 3.16 µM)
